Measurements reported in PMC12301034, “Design and Synthesis of Boronic Chalcones with Dual Anticancer and Anti-Inflammatory Activity” (Molecules, 2025).

Columns and labels:
Kinetic solubility = format: physicochemical
Experimental: To determine kinetic solubility, stock solutions of test compounds and controls [Amiodarone hydrochloride (Sigma-Aldrich, St. Louis, MO, USA), Diclofenac (Oakwood Chemical, Estill, SC, USA), Chloramphenicol (Sigma-Aldrich, St. Louis, MO, USA), and Itraconazole (Sigma-Aldrich, St. Louis, MO, USA)] were prepared at 10 mM in DMSO. A volume of 5 µL from each stock solution was transferred to designated wells of a 96-well incubation plate in duplicate. Subsequently, 195 µL of phosphate-buffered saline (PBS) at pH 7.4 or 2.0 was added to achieve a final compound concentration of 250 µM (final DMSO concentration ≤ 2.5%). The plate was sealed and subjected to shaking at 200 rpm for 24 ± 1 h at room temperature (25 °C). Following the incubation period, the plate was centrifuged at 3000 rpm for 15 min at 25 °C to remove precipitates. A 100 µL aliquot of the supernatant from each well was transferred to a corresponding well in a new 96-well plate. The samples were subsequently analyzed by an LCMS-8045 system (Shimazu, Kyoto, Japan). To quantify the solubilized fraction, a calibration curve was prepared for each test compound and control. From the 10 mM stock solution, an intermediate standard solution (0.5 mM) was prepared in a 1:1 acetonitrile:water mixture. Serial dilutions of this intermediate solution were performed to obtain final concentrations of 50, 40, 20, 2, and 1 µM. […]

Detroit-562 cells = test: MTT cytotoxicity assay on Detroit-562 cells; format: cell-based
From the text: The SCC-25 (ATCC® CRL-1628™), Detroit-562 (ATCC® CCL-138™), and THP-1 (ATCC® TIB-202™) cells were purchased from Rio de Janeiro Cell Bank (Duque de Caxias, Brazil), and NOK-si was kindly provided by Prof. Carlos Rossa from the School of Dentistry—UNESP. All the cells were cultivated according to standard conditions. Human colorectal adenocarcinoma HCT116 cell lines (ATCC® CCL-247™) expressing p53 and its p53-null isogenic derivative (HCT116 p53^−/−) were provided by B. Vogelstein (The Johns Hopkins Kimmel Cancer Center, Baltimore, MD, USA).
Cells (NOK-si, SCC-25, and Detroit-562) were grown in a DMEM medium (Dulbecco’s Modified Eagle Medium), supplemented according to the needs of each lineage, as recommended by its cell banks, with 2 mM L-glutamine, 10% or 20% fetal bovine serum (FBS), 1% antibiotic–antimycotic solution (5 mg/mL penicillin, 5 mg/mL streptomycin, and 10 mg/mL neomycin), 4.5 g/L of glucose, and 3.7 g/L of sodium bicarbonate (NaHCO3). All cell lines were cultured in flasks at 37 °C in 5% carbon dioxide (CO2) and 95% of relative humidity. The assays were conducted between the third- and the seventh-cell passage, with sub-cultures every 3–4 days to maintain exponential growth. The cell viability was checked using the trypan blue dye exclusion assay for all experiments, where over 95% of the cells were viable at the beginning of the tests. NOK-si, SCC-25, and Detroit-562 were initially thawed and cultured in 25 cm^2 cell culture flasks. Cell growth was monitored using a microscope, and the culture medium was changed periodically. […] Absorbance was read at 562 nm using an EZ Read 400 microplate reader (Biochrom, Cambridge, UK) and ADAP 2.0 Biochrom software (version 2.0). IC50 values and graphs were calculated using Excel and Prism software (version 10.4.1). The MTT assay results were evaluated for normality using the Shapiro–Wilk test, followed by one-way ANOVA with Tukey’s post hoc test at a significance level of 5%.

COc1cccc(C(=O)/C=C/c2cccc(B(O)O)c2)c1 [Compound 5, (E)-(3-(3-(3-methoxyphenyl)-3-oxoprop-1-en-1-yl)phenyl)boronic acid]
solubility class (Kinetic solubility; kinetic solubility pH 7.4): moderate-to-high solubility | solubility at 24 h (Kinetic solubility; phosphate-buffered saline, aqueous buffer, kinetic from dmso stock, PBS pH 7.4, 24 h, 25 °C, read-out: Kinect Solubility (KS) pH = 7.4): > 39.6 µg/mL | IC50 (Detroit-562 cells; Homo sapiens, MTT, 24 h incubation, Detroit-562 metastatic pharyngeal cancer model): 33.1 ± 5.1 µM | SI against the metastatic cell line (NOK-si vs Detroit-562) (Detroit-562 cells; selectivity index): greater than 1.7
